Key:
NCI-H1975 xenografts = test: NCI-H1975 xenograft tumor growth; format: in vivo, NMRI-Nude mice
Method: Tumor volume was measured using a manual caliper two to three times a week. The tumor volume was calculated using the formula: lager tumor diameter x square of the smaller tumor diameter divided by 2. Based on a linear fit of the mean tumor volumes the slopes of the curves were compared by regression analysis (two-tailed).
(§1) The response was determined by comparing tumor volume change at time t to its baseline: % tumor volume change=ΔVolt=100%×((Vt−Vinitial)/Vinitial). The Best Response was the minimum value of ΔVolt for t≥10 d. For each time t, the average of ΔVolt from t=0 to t was also calculated. The BestAvgResponse is defined as the minimum value of this average for t≥10 d. This metric captures a combination of speed, strength and durability of response into a single value. […] Mice that were sacrificed because of an adverse event before they had completed 14 d on trial were removed from the data set.
as §1, with “ΔVolt for t≥6 d. For” for “ΔVolt for t≥10 d. For”

HCC827 cells = test: Cell counting by nuclear fluorescent staining (Hoechst33342); format: cell-based
Method: Several plates were seeded, as for each time point of cell counting one plate was fixed and stained for analysis. […] Cell cultivation was continued until time of fixation and analysis for each plate. For extended time-points, medium and drugs were replenished twice weekly.
At the given time plates were washed 3 times with PBS and cells fixed with 80 μl 4% PFA for 10 min, RT. After 3 wash steps with PBS cells were stained with 10 μg/ml Hoechst33342 (Thermo Scientific H12492) in 100 μl PBS for 2 h, RT, dark. After 3× PBS washing-steps, Hoechst33342 signals were acquired on in an automated imaging mode using a Zeiss Apotome with motorized X/Y stage and a 5× objective. Image analysis and determination of Hoechst33342 spots (nuclei) was done using ImageJ. Number of nuclei was plotted as function of time using GraphPad Prism.

ATAD2B = biological target: T1, ATAD2B (Homo sapiens, UniProt Q9ULI0); test: BROMOscan BromoKdMAX; format: binding
T1 construct: T7 phage strains displaying bromodomains were grown in parallel; purchased DiscoverX; host or cells: T7 phage in E. coli host derived from BL21
Method: (§2) A BromoKdMAX was performed at DiscoverX.
(§3) The assay principle is the following: BROMOscan™ is a novel industry leading platform for identifying small molecule bromodomain inhibitors. Based on proven KINOMEscan™ technology, BRO-MOscan™ employs a proprietary ligand binding site-directed competition assay to quantitatively measure interactions between test compounds and bromodomains. This robust and reliable assay panel is suitable for high throughput screening and delivers quantitative ligand binding data to facilitate the identification and optimization of potent and selective small molecule bromodomain inhibitors.
(§4) The assay was conducted as follows: For the Bromodomain assays, T7 phage strains displaying bromodomains were grown in parallel in 24-well blocks in an E. coli host derived from the BL21 strain. E. coli were grown to log-phase and infected with T7 phage from a frozen stock (multiplicity of infection=0.4) and incubated with shaking at 32° C. until lysis (90-150 minutes). The lysates were centrifuged (5,000×g) and filtered (0.2 μm) to remove cell debris. […] The liganded beads were blocked with excess biotin and washed with blocking buffer (SeaBlock (Pierce), 1% BSA, 0.05% Tween 20, 1 mM DTT) to remove unbound ligand and to reduce non-specific phage binding. […] Test compounds were prepared as 1000× stocks in 100% DMSO. Kds were determined using an 11-point 3-fold compound dilution series with one DMSO control point. […] The compounds were then diluted directly into the assays such that the final concentration of DMSO was 0.09%. All reactions performed in polypropylene 384-well plates. Each was a final volume of 0.02 ml. […] The bromodomain concentration in the eluates was measured by qPCR.

PBRM1(5) = biological target: T2, PBRM1(5) (Homo sapiens, UniProt Q86U86); test: BROMOscan BromoKdMAX; format: binding
T2 construct: T7 phage strains displaying bromodomains were grown in parallel; purchased DiscoverX (BROMOscan / BromoKdMAX service); host or cells: T7 phage in E. coli host derived from BL21
Method: as §2, §3, §4

FALZ = biological target: T3, FALZ (Homo sapiens, UniProt Q12830); test: BROMOscan BromoKdMAX; format: binding
T3 construct: T7 phage strains displaying bromodomains were grown in parallel; purchased DiscoverX (BROMOscan / BromoKdMAX service); host or cells: T7 phage in E. coli host derived from BL21
Method: as §2, §3, §4

GCN5L2 = biological target: T4, GCN5L2 (Homo sapiens, UniProt Q92830); test: BROMOscan BromoKdMAX; format: binding
T4 construct: T7 phage strains displaying bromodomains were grown in parallel; purchased DiscoverX (BROMOscan / BromoKdMAX service); host or cells: T7 phage in E. coli host derived from BL21
Method: as §2, §3, §4

PBRM1(2) = biological target: T5, PBRM1(2) (Homo sapiens, UniProt Q86U86); test: BROMOscan BromoKdMAX; format: binding
T5 construct: T7 phage strains displaying bromodomains were grown in parallel; purchased DiscoverX (BROMOscan / BromoKdMAX service); host or cells: T7 phage in E. coli host derived from BL21
Method: as §2, §3, §4

TRIM33(PHD, Bromo.) = biological target: T6, TRIM33(PHD, Bromo.) (Homo sapiens, UniProt Q9UPN9); test: BROMOscan BromoKdMAX; format: binding
T6 construct: TRIM33(PHD, Bromo.)
Method: as §2, §3, §4

BRD1 = biological target: T7, BRD1 (Homo sapiens, UniProt O95696); test: BROMOscan BromoKdMAX; format: binding
T7 construct: T7 phage strains displaying bromodomains were grown in parallel; purchased DiscoverX; host or cells: T7 phage in E. coli host derived from BL21
Method: as §2, §3, §4

BAZ2B = biological target: T8, BAZ2B (Homo sapiens, UniProt Q9UIF8); test: BROMOscan BromoKdMAX; format: binding
T8 construct: T7 phage strains displaying bromodomains were grown in parallel; purchased DiscoverX; host or cells: T7 phage in E. coli host derived from BL21
Method: as §2, §3, §4

BRPF3 = biological target: T9, BRPF3 (Homo sapiens, UniProt Q9ULD4); test: BROMOscan BromoKdMAX; format: binding
T9 construct: T7 phage strains displaying bromodomains were grown in parallel; purchased DiscoverX; host or cells: T7 phage in E. coli host derived from BL21
Method: as §2, §3, §4

SMARCA4 = biological target: T10, SMARCA4 (Homo sapiens, UniProt P51532); test: BROMOscan BromoKdMAX; format: binding
T10 construct: T7 phage strains displaying bromodomains were grown in parallel; purchased DiscoverX (BROMOscan / BromoKdMAX service); host or cells: T7 phage in E. coli host derived from BL21
Method: as §2, §3, §4

ATAD2A = biological target: T11, ATAD2A (Homo sapiens, UniProt Q6PL18); test: BROMOscan BromoKdMAX; format: binding
T11 construct: T7 phage strains displaying bromodomains were grown in parallel; purchased DiscoverX; host or cells: T7 phage in E. coli host derived from BL21
Method: as §2, §3, §4

SMARCA2 = biological target: T12, SMARCA2 (Homo sapiens, UniProt P51531); test: BROMOscan BromoKdMAX; format: binding
T12 construct: T7 phage strains displaying bromodomains were grown in parallel; purchased DiscoverX (BROMOscan / BromoKdMAX service); host or cells: T7 phage in E. coli host derived from BL21
Method: as §2, §3, §4

BAZ2A = biological target: T13, BAZ2A (Homo sapiens, UniProt Q9UIF9); test: BROMOscan BromoKdMAX; format: binding
T13 construct: T7 phage strains displaying bromodomains were grown in parallel; purchased DiscoverX; host or cells: T7 phage in E. coli host derived from BL21
Method: as §2, §3, §4

T13 sequence (Q9UIF9 1793-1897 limits assumed): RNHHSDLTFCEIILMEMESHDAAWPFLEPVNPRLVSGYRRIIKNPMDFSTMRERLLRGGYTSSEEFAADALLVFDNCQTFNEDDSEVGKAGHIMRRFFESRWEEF
T12 sequence (P51531 1378-1506 limits assumed): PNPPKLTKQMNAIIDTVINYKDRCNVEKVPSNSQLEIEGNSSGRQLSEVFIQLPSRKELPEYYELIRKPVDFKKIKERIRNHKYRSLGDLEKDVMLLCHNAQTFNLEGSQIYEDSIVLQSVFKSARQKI
T9 sequence (Q9ULD4 589-693 limits assumed): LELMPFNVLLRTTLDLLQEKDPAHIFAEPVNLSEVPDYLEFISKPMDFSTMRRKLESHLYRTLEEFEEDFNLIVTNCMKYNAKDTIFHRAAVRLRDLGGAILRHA
T10 sequence (P51532 1453-1564 limits assumed): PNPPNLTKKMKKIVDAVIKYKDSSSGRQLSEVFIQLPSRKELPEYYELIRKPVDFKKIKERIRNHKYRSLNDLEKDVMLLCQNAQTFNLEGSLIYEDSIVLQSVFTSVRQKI
T6 sequence (Q9UPN9 whole entry): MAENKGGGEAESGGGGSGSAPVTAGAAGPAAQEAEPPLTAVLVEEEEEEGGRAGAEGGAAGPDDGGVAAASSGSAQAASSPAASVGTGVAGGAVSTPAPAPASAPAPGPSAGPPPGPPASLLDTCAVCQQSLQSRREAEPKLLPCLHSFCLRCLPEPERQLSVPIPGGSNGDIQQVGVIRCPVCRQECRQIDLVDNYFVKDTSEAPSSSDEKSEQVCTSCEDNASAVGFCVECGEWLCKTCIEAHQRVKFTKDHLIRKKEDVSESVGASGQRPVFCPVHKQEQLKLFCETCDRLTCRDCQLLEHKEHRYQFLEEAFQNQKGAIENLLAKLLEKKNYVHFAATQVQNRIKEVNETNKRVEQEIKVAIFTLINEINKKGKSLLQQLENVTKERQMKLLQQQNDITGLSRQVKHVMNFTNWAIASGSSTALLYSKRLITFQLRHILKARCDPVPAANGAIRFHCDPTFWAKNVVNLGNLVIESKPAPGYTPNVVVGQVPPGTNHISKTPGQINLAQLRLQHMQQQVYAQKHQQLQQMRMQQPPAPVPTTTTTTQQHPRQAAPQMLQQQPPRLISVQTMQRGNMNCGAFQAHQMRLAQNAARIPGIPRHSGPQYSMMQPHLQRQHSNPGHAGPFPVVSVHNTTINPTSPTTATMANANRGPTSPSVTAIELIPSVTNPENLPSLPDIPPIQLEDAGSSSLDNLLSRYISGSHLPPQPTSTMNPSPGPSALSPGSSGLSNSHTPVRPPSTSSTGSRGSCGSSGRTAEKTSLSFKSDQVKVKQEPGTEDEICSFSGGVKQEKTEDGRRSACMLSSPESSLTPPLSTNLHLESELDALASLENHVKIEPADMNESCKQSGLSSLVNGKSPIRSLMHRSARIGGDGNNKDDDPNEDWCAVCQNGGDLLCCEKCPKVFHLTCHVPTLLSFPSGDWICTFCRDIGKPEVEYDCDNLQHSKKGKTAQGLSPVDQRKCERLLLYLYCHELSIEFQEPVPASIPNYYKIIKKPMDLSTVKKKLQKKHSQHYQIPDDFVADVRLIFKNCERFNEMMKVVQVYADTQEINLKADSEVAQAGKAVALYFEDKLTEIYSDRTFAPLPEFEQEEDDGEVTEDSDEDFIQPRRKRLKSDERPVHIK
T1 sequence (Q9ULI0 951-1066 limits assumed): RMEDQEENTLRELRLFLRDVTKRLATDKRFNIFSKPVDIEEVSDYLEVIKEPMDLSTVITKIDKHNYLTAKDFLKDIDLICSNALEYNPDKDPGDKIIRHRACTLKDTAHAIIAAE
T2 sequence (Q86U86 653-763 limits assumed): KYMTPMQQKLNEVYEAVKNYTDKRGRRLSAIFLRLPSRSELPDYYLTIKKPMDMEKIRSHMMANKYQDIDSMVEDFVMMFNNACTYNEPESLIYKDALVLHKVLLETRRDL
T11 sequence (Q6PL18 980-1092 limits assumed): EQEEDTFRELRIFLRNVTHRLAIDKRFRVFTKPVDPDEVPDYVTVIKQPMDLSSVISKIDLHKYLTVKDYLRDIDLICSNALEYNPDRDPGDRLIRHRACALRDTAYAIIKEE
T4 sequence (Q92830 728-832 limits assumed): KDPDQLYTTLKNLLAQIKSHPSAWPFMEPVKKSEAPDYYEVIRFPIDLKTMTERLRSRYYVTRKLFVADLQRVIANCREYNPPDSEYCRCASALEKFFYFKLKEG
T5 sequence (Q86U86 177-287 limits assumed): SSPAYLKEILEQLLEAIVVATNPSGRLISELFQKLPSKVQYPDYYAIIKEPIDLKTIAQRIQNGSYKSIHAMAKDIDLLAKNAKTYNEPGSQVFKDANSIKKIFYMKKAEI
T7 sequence (O95696 562-666 limits assumed): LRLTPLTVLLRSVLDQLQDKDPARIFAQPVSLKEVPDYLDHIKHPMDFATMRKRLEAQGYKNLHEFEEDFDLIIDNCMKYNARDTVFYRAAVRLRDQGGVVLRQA
T8 sequence (Q9UIF8 2060-2164 limits assumed): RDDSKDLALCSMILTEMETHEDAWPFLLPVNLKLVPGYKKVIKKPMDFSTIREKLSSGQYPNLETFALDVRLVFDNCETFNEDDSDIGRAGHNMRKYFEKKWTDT

Kd (ATAD2B): > 10 µM | Kd (PBRM1(5)): 3.1 µM | Kd (FALZ): 5.5 µM | Kd (GCN5L2): > 10 µM | Kd (PBRM1(2)): > 10 µM | Kd (TRIM33(PHD, Bromo.)): > 10 µM | Kd (BRD1): > 10 µM | Kd (BAZ2B): > 10 µM | Kd (BRPF3): > 10 µM | Kd (SMARCA4): > 10 µM | Kd (ATAD2A): > 10 µM | Kd (SMARCA2): > 10 µM | Kd (BAZ2A): > 10 µM
Compound: CO[C@H]1CC[C@H](n2c([C@@H]3CCCC(=O)N3c3ccc(F)c(F)c3)nc3cc(-c4c(C)noc4C)ccc32)CC1 [CCS1477]
Response rate to therapy (best average response) (NCI-H1975 xenografts; 2 mg/kg osimertinib in combination with 20 mg/kg CCS1477): increased response rate | Tumor growth (slopes of mean tumor volume curves) versus osimertinib group (NCI-H1975 xenografts; 2 mg/kg osimertinib in combination with 20 mg/kg CCS1477, daily, orally): significant difference | Response to therapy (best average response) (NCI-H1975 xenografts; 20 mg/kg CCS1477 alone): absence of response | Tumor growth (slopes of mean tumor volume curves) versus vehicle (NCI-H1975 xenografts; 20 mg/kg CCS1477 single agent, daily, orally): No significant difference | Effect on cell proliferation as single agent (HCC827 cells; absence of EGFR inhibitor (FIG. 3 left)): do not affect cell proliferation | Anti-proliferative activity / re-growth in presence of Gefitinib (HCC827 cells; in presence of 300 nM Gefitinib (FIG. 3)): potentiate the effect of the EGFR inhibitor

— patent US20230255966A1, “A COMBINATION OF A CBP/P300 BROMODOMAIN INHIBITOR AND AN EGFR INHIBITOR FOR USE IN TREATING EGFR-MUTANT NSCLC” (TOLREMO THERAPEUTICS AG, priority 2020, published 2023)
